Data reported in the supplement of paper PMC8617591.

Columns and labels:
[1] = test system: Mycobacterium tuberculosis Erdman (autoluminescent); assay: GRinf, maximum normalised growth rate inhibition (three-drug combination) (unitless (-1 to 1)); higher = less effect (negative = killing)
Procedure: (§1)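 DiaMOND equipotent three-drug combination dose responses (10 doses, 1.5- or 2-fold spacing, centred on IC90) against autoluminescent M. tuberculosis Erdman in 8 in vitro models. Read-out is OD600, or luminescence for the intracellular and dormancy models, normalised to untreated wells. Hill-fit Einf, AUC25 and GRinf are potency metrics; FIC50 and FIC90 are total Loewe fractional inhibitory concentrations as log2 (negative = synergy).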

[2] = test system: Mycobacterium tuberculosis Erdman (autoluminescent); assay: Einf, fitted maximum growth inhibition of three-drug combination (fraction); higher = stronger maximal inhibition
Procedure: as §1

[3] = test system: Mycobacterium tuberculosis Erdman (autoluminescent); assay: total FIC90 (Loewe) at 90% inhibition, three-drug combination (log2); higher = more antagonistic
Procedure: as §1

[4] = test system: Mycobacterium tuberculosis Erdman (autoluminescent); assay: AUC25, normalised area under dose response up to IC25 (three-drug combination) (fraction (0-1)); higher = more potent at low dose
Procedure: as §1

[5] = test system: Mycobacterium tuberculosis Erdman (autoluminescent); assay: total FIC50 (Loewe) at 50% inhibition, three-drug combination (log2); higher = more antagonistic
Procedure: as §1

COc1nc2ccc(Br)cc2cc1[C@@H](c1ccccc1)[C@@](O)(CCN(C)C)c1cccc2ccccc12 [bedaquiline] + NNC(=O)c1ccncc1 [isoniazid] + CO[C@H]1/C=C/O[C@@]2(C)Oc3c(C)c(O)c4c(O)c(c(/C=N/N5CCN(C)CC5)c(O)c4c3C2=O)NC(=O)/C(C)=C\C=C\[C@H](C)[C@H](O)[C@@H](C)[C@@H](O)[C@@H](C)[C@H](OC(C)=O)[C@@H]1C [rifampicin]
Conditions	AUC25, [4]	Einf, [2]	GRinf, [1]	total FIC50, [5]	total FIC90, [3]
in vitro model: acidic pH 5.7, time point: constant (~7 days, model-specific)	0.108	0.955	-0.45	0.796	–
in vitro model: acidic pH 5.7, time point: terminal (~4-5 doublings, model-specific)	0.089	0.99	-0.282	0.663	0.706
in vitro model: intracellular J774, time point: constant = terminal	–	0.965	-0.25	–	0.354

Conditions	AUC25, [4]	Einf, [2]	GRinf, [1]	total FIC50, [5]	total FIC90, [3]
in vitro model: butyrate, time point: constant (~7 days, model-specific)	0.102	0.946	-0.0859	0.575	0.602
in vitro model: butyrate, time point: terminal (~4-5 doublings, model-specific)	0.0879	0.977	-0.052	0.331	0.56
in vitro model: cholesterol 0.05 mM, time point: constant (~7 days, model-specific)	0.0808	0.689	-0.157	-0.117	–
in vitro model: cholesterol 0.05 mM, time point: terminal (~4-5 doublings, model-specific)	0.0785	0.918	-0.164	0.536	-0.254
in vitro model: cholesterol-high 0.2 mM, time point: constant (~7 days, model-specific)	0.0768	0.978	-0.43	0.606	–
in vitro model: cholesterol-high 0.2 mM, time point: terminal (~4-5 doublings, model-specific)	0.0551	0.998	-0.606	0.868	0.598
in vitro model: dormancy (butyrate + nitrate, low O2), time point: constant (~7 days, model-specific)	0.0706	0.908	0.222	0.635	0.621
in vitro model: dormancy (butyrate + nitrate, low O2), time point: terminal (~4-5 doublings, model-specific)	0.0374	0.987	-0.16	0.347	0.0703
in vitro model: standard 7H9 glycerol, time point: constant = terminal	0.0722	0.939	-0.0733	0.27	0.0151
in vitro model: valerate, time point: constant (~7 days, model-specific)	0.0578	0.912	-0.0907	1.13	–
in vitro model: valerate, time point: terminal (~4-5 doublings, model-specific)	0.0274	0.963	-0.0942	1.33	1.01

COc1nc2ccc(Br)cc2cc1[C@@H](c1ccccc1)[C@@](O)(CCN(C)C)c1cccc2ccccc12 [bedaquiline] + NC(=O)c1cnccn1 [pyrazinamide] + CO[C@H]1/C=C/O[C@@]2(C)Oc3c(C)c(O)c4c(O)c(c(/C=N/N5CCN(C6CCCC6)CC5)c(O)c4c3C2=O)NC(=O)/C(C)=C\C=C\[C@H](C)[C@H](O)[C@@H](C)[C@@H](O)[C@@H](C)[C@H](OC(C)=O)[C@@H]1C [rifapentine]
Conditions	AUC25, [4]	Einf, [2]	GRinf, [1]	total FIC50, [5]	total FIC90, [3]
in vitro model: acidic pH 5.7, time point: constant (~7 days, model-specific)	0.105	0.951	-0.444	0.212	–
in vitro model: acidic pH 5.7, time point: terminal (~4-5 doublings, model-specific)	0.0905	0.987	-0.331	0.0918	0.167
in vitro model: intracellular J774, time point: constant = terminal	–	0.984	-0.419	–	0.111

Conditions	AUC25, [4]	Einf, [2]	GRinf, [1]	total FIC50, [5]	total FIC90, [3]
in vitro model: butyrate, time point: constant (~7 days, model-specific)	0.109	0.973	-0.292	0.368	0.452
in vitro model: butyrate, time point: terminal (~4-5 doublings, model-specific)	0.0948	0.995	-0.264	0.608	0.896
in vitro model: cholesterol 0.05 mM, time point: constant (~7 days, model-specific)	0.113	0.75	-0.416	–	–
in vitro model: cholesterol 0.05 mM, time point: terminal (~4-5 doublings, model-specific)	0.0882	0.854	-0.194	0.907	–
in vitro model: cholesterol-high 0.2 mM, time point: constant (~7 days, model-specific)	0.0619	0.959	-0.405	0.688	–
in vitro model: cholesterol-high 0.2 mM, time point: terminal (~4-5 doublings, model-specific)	0.0597	1	-0.644	1.1	0.6
in vitro model: dormancy (butyrate + nitrate, low O2), time point: constant (~7 days, model-specific)	0.0664	0.907	0.181	-0.395	-0.492
in vitro model: dormancy (butyrate + nitrate, low O2), time point: terminal (~4-5 doublings, model-specific)	0.0515	0.988	-0.135	0.0969	-0.227
in vitro model: standard 7H9 glycerol, time point: constant = terminal	0.0752	0.917	0.0581	-0.269	–
in vitro model: valerate, time point: constant (~7 days, model-specific)	0.0676	0.855	-0.194	0.992	–
in vitro model: valerate, time point: terminal (~4-5 doublings, model-specific)	0.0334	0.939	-0.182	0.965	0.779

NNC(=O)c1ccncc1 [isoniazid] + O=[N+]([O-])c1cn2c(n1)OC[C@@H](OCc1ccc(OC(F)(F)F)cc1)C2 [pretomanid] + CO[C@H]1/C=C/O[C@@]2(C)Oc3c(C)c(O)c4c(O)c(c(/C=N/N5CCN(C)CC5)c(O)c4c3C2=O)NC(=O)/C(C)=C\C=C\[C@H](C)[C@H](O)[C@@H](C)[C@@H](O)[C@@H](C)[C@H](OC(C)=O)[C@@H]1C [rifampicin]
Conditions	AUC25, [4]	Einf, [2]	GRinf, [1]	total FIC50, [5]	total FIC90, [3]
in vitro model: acidic pH 5.7, time point: constant (~7 days, model-specific)	0.0775	0.859	-0.11	3.95	–
in vitro model: acidic pH 5.7, time point: terminal (~4-5 doublings, model-specific)	0.0694	0.984	-0.197	3.6	3.63
in vitro model: intracellular J774, time point: constant = terminal	–	0.984	-0.312	–	-0.077

Conditions	AUC25, [4]	Einf, [2]	GRinf, [1]	total FIC50, [5]	total FIC90, [3]
in vitro model: butyrate, time point: constant (~7 days, model-specific)	0.0916	0.923	0.00511	2.61	0.589
in vitro model: butyrate, time point: terminal (~4-5 doublings, model-specific)	0.0722	0.963	0.0279	2.48	2.45
in vitro model: cholesterol 0.05 mM, time point: constant (~7 days, model-specific)	0.0953	0.655	-0.0786	1.31	–
in vitro model: cholesterol 0.05 mM, time point: terminal (~4-5 doublings, model-specific)	0.0868	0.899	-0.194	1.53	0.957
in vitro model: cholesterol-high 0.2 mM, time point: constant (~7 days, model-specific)	0.0449	0.872	-0.204	0.405	–
in vitro model: cholesterol-high 0.2 mM, time point: terminal (~4-5 doublings, model-specific)	0.0391	0.977	-0.604	0.794	0.324
in vitro model: dormancy (butyrate + nitrate, low O2), time point: constant (~7 days, model-specific)	0.066	0.857	0.266	2.35	2.04
in vitro model: dormancy (butyrate + nitrate, low O2), time point: terminal (~4-5 doublings, model-specific)	0.0408	0.974	-0.0694	2.21	2.12
in vitro model: standard 7H9 glycerol, time point: constant = terminal	0.0661	0.893	0.151	5.01	3.36
in vitro model: valerate, time point: constant (~7 days, model-specific)	0.0615	0.863	0.000666	3.28	–
in vitro model: valerate, time point: terminal (~4-5 doublings, model-specific)	0.0349	0.939	0.0355	3.03	1.97
